In US5614550A, “Amide and urea derivatives having anti-hypercholesteremic activity, their preparation and their therapeutic uses” (Sankyo Company, Limited, priority 1993, dated 1997):

Biological target: T1, ACAT in M.phi. (acyl-CoA: cholesterol acyl transferase) (Mus musculus, UniProt Q61263)
T1 construct: endogenous in cells; host or cells: primary adherent peritoneal macrophages from unstimulated female DDY mice
T1 sequence (Q61263 1-540): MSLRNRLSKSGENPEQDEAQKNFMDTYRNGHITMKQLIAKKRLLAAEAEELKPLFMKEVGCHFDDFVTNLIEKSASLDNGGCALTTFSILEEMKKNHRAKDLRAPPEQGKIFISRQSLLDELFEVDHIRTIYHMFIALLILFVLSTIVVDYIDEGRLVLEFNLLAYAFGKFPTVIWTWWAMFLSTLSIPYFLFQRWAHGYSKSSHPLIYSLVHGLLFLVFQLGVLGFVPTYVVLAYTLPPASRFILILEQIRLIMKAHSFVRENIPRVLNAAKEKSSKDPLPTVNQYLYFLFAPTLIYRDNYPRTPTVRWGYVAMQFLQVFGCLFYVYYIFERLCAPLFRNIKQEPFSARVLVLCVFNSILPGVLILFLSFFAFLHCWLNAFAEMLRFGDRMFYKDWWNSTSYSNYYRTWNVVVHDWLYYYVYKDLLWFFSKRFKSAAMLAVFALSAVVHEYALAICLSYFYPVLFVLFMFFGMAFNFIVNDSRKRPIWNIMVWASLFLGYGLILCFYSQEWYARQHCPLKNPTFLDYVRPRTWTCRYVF
Test: Inhibition of ACAT in mouse macrophages (M.phi.), cholesterol [14C]oleate formation
Type: cell-based
Set-up: dose or concentration left out as unconfirmed
Conditions: mouse peritoneal macrophages, beta-VLDL, 37° C., 3 hours
Protocol: Blood was obtained [using the anticoagulant ethylene diamine tetraacetic acid (5 mM)] from Japanese White rabbits which had been fed a 2% w/w cholesterol diet for 2 weeks and then fasted overnight prior to removing the blood. β-VLDL (d<1.006 g/ml) was isolated by ultracentrifugation from the plasma according to the method of Hatch and Lees [Hatch, F. T. and Lees, R. S., Adv. Lipid Res., 6, 1-68 (1968)] and dialyzed against 10 mM of a sodium phosphate buffer (pH 7.4) containing 150 mM sodium chloride at 4° C.
Peritoneal cells were harvested from unstimulated female DDY mice (body weight 20-30 g) in phosphate buffer saline (PBS) as described by Edelson and Cohn [Edelson, P. J. and Cohn, Z. A., 1976, IN VITRO Methods in Cell-Mediated and Tumor Immunity, eds, Bloon, B. R. and DAvid, J. R., (Academic, New York), 333-340.]. The fluid from the mice was pooled and the cells were collected by centrifugation at 400× g, for 10 minutes at 4° C., and washed once with PBS. The cells were resuspended in Dulbecco's modified Eagle's medium (DMEM) containing 10% (vol/vol) fetal calf serum (FCS), penicillin (100 units/ml), and streptomycin (100 μg/ml) at a final concentration of 3×10^6 cells per ml. Aliquots (1 ml) of this cell suspension were dispersed onto plastic Petri dishes (35×10 mm) and then incubated in a CO2 incubator (5% CO2 /95% air) at 37° C. for 2 hours. Each dish was washed twice with PBS without serum to remove nonadherent cells. The cells were washed twice with 2 ml of PBS and used for the experiment.
Inhibition of ACAT in M.phi. was determined according to the method described by Brown et al. [Brown, M. S., Goldstein J. L., Krieger, M., Ho, Y. K. and Anderson, R. G. W. (1979) J. Cell Biol., 82, 597-613.]. Cholesterol reacylation was initiated by adding β-VLDL (final concentration 50 μg/ml cholesterol), [^14 C]oleate-albumin complex (final concentrations: 0.2 mM oleate and 0.6 mg/ml albumin) and a test compound dissolved in ethanol into the M.phi. monolayer, and the preparation was incubated at 37° C. for 3 hours in a CO2 incubator. Cells were washed three times with PBS and cellular lipid was extracted with 1 ml hexane/isopropanol (3:2, vol/vol). A lipid extract was evaporated in a stream of nitrogen. Cholesterol [^14 C]oleated was seperated by thin layer chromatography through silica gel using a 85:15:1 by volume mixture of hexane, diethyl ether and acetic acid as developing solvents. The ACAT activity in M.phi. was determined by measuring the radioactivity and an inhibition rate (%) was calculated by comparing a control activity with those of the test compound at given concentrations.

SMILES | inhibition
CC(C)(C)c1ccc(CCC(O)CCC2CCCCC2)cc1NC(=O)CC1c2ccccc2Oc2ccccc21 (centres unmarked) [Example 26, N-[2-t-Butyl-5-(5-cyclohexyl-3-hydroxypentyl)phenyl]-2-(9H-xanthen-9-yl)acetamide] | 77%
CC(C)(C)c1ccc(CCC(O)CCCCC2CCCCC2)cc1NC(=O)CC1c2ccccc2Oc2ccccc21 (centres unmarked) [Example 44, N-[2-t-Butyl-5-(7-cyclohexyl-3-hydroxyheptyl)phenyl]-2-(9H-xanthen-9-yl)acetamide] | 89%
CC(C)(C)c1ccc(CCC(O)C2CCCCCC2)cc1NC(=O)CC1c2ccccc2Oc2ccccc21 (centres unmarked) [Example 98, N-[2-t-Butyl-5-(3-cycloheptyl-3-hydroxypropyl)phenyl]-2-(9H-xanthen-9-yl)acetamide] | 81%
CC(C)c1cccc(C(C)C)c1NC(=O)CC1c2ccccc2Oc2ccccc21 [Compound A, reference compound] | 51%
CC(C)(C)c1ccc(CCC(=O)CC2CCCCC2)cc1NC(=O)CC1c2ccccc2Oc2ccccc21 [Example 13, N-[2-t-Butyl-5-(4-cyclohexyl-3-oxobutyl)phenyl]-2-(9H-xanthen-9-yl)acetamide] | 80%

Next, values leading:

inhibition | SMILES
74% | CC(C)(C)c1ccc(CCC(O)CCOC2CCCCC2)cc1NC(=O)CC1c2ccccc2Oc2ccccc21 (centres unmarked) [Example 217, N-[2-t-Butyl-5-(5-cyclohexyloxy-3-hydroxypentyl)phenyl]-2-(9H-xanthen-9-yl)acetamide]
86% | CC(C)(C)c1ccc(CCC(O)COCCC2CCCCC2)cc1NC(=O)CC1c2ccccc2Oc2ccccc21 (centres unmarked) [Example 219, N-{2-t-Butyl-5-[4-(2-cyclohexylethoxy)-3-hydroxybutyl]phenyl}-2-(9H-xanthen-9-yl)acetamide]
85% | CC(C)c1cccc(CCC(O)CCCC2CCCCC2)c1NC(=O)CC1c2ccccc2Oc2ccccc21 (centres unmarked) [Example 125, N-[2-Isopropyl-6-(6-cyclohexyl-3-hydroxyhexyl)phenyl]-2-(9H-xanthen-9-yl)acetamide]
